Earlier results as cited in patent publication US20050220913A1, “Novel in-expensive and efficient process for isolation of imperatorin, a potent inducible nitric oxide synthase inhibitor and anti-inflammatory drug candidate from Aegle marmelos Correa” (Council of Scientific and Industrial Research, priority 2004, published 2005).

Experiments:
[1] = test system: inducible nitric oxide synthase (iNOS); details: imperatorin isolated from Saposhnikovia divaricata; Yang et al. 1999
[2] = test system: human promyelocytic leukaemia, HL-60 cells; details: at micromolar concentrations; imperatorin from roots of Angelica dahurica; Hyun-Ock et al. 2002
HL-60 cells = details: Kawa et al. 2000

**Q.** With CC(C)=CCOc1c2occc2cc2ccc(=O)oc12 [Imperatorin] as the compound, how does the “IC50 value for inhibition of nitrite production” value [1] read?
**A.** 17.3 µg/mL

**Q.** And the “induction of apoptosis of HL-60 cells” value [2]?
**A.** able to trigger apoptosis of HL-60 cells

**Q.** What about the “activity of HL-60 cells by nitro blue tetrazolium (NBT) method” value (HL-60 cells) of the same compound?
**A.** strong activity
